Test results taken from patent US20240150365A1 (Hotspot Therapeutics, Inc., priority 2022, published 2024).
Like-named read-outs stand apart in the source and are kept apart here.

Legend:
MALT1 = biological target: T1, MALT1 (Homo sapiens, UniProt Q9UDY8); assay: MALT-1 Fluorogenic Peptide Cleavage Assay (MALT1 inhibition assay); assay type: biochemical; settings: Avi-tagged FL MALT-1, Ac-LRSR-AMC peptide substrate, 30 min pre-incubation, 90 min reaction
T1 construct: Avi-tagged FL MALT-1 (Pharmaron, stored at −70° C.); Avi tag
T1 sequence (Q9UDY8 1-824): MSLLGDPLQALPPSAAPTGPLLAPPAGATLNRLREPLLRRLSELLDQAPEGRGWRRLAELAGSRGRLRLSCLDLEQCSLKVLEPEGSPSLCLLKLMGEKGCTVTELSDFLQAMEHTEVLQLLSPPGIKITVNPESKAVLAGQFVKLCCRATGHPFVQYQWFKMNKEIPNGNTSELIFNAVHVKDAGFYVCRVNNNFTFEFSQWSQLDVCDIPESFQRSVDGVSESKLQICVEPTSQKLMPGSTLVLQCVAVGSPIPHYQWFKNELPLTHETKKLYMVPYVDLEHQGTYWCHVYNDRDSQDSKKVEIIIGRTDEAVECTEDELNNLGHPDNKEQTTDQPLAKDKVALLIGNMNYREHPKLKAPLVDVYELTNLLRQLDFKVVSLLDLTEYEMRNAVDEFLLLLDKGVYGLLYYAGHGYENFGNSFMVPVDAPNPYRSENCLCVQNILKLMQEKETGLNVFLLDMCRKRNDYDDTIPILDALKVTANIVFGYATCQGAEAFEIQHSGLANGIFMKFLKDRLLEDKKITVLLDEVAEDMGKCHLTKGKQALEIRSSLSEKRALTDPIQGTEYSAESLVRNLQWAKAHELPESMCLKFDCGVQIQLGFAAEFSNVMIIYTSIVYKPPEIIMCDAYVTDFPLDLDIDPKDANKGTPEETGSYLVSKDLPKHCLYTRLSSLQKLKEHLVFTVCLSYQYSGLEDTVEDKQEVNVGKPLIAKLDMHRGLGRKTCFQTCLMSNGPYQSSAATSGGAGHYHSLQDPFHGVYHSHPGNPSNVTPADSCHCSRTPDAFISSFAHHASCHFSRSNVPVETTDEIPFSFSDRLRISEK
In short: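 IC50 from sigmoidal fits of % inhibition, with fluorescence (ex 342, em 441 nm) from AMC released from the quenched LRSR peptide after 90 min at room temperature. Full-length Avi-tagged MALT1 saw compound for 30 min first; final DMSO 2%.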

NF-kB = NF-kB reporter assay in Jurkat cells stimulated with aCD3/aCD28/PMA; assay type: cell-based; settings: Homo sapiens, Jurkat, read-out: NF-kB Reporter Assay IC50
In short: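 Stimulation used final aCD3 5 μg/mL, aCD28 5 μg/mL and PMA 0.03 μg/mL for 4 hr at 37° C, after 1 hr compound pretreatment of 25,000 serum-starved Jurkat cells per well. One-Glo luminescence gave IC50 values.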

[1] = Jurkat cells, 1 hr compound incubation, aCD3/aCD28/PMA stimulation 4 hr, One-Glo readout

Row | Compound | IC50 (MALT1) [nM] | IC50 (NF-kB; [1]) [nM] | IC50 (NF-kB) [nM]
1 | COc1ccc2cn[nH]c2c1NS(=O)(=O)c1ccc(-n2cc(C(F)(F)F)cn2)nc1 [Example I-175, N-(6-methoxy-1H-indazol-7-yl)-6-(4-(trifluoromethyl)-1H-pyrazol-1-yl)pyridine-3-sulfonamide] | < 400 | < 400 | 
2 | Cc1c(-c2ccc(S(=O)(=O)Nc3cccc4cnn(C)c34)cn2)cnn1C [Example I-88, 6-(1,5-Dimethyl-1H-Pyrazol-4-yl)-N-(1-Methyl-1H-Indazol-7-yl)Pyridine-3-Sulfonamide] | > 2500 | < 400 | 
3 | CC(C)c1ccn(-c2ccc(S(=O)(=O)N(C)c3cccc4cnn(C)c34)cn2)n1 [Example I-171, 6-(3-isopropyl-1H-pyrazol-1-yl)-N-methyl-N-(1-methyl-1H-indazol-7-yl)pyridine-3-sulfonamide] | > 2500 | < 400 | 
4 | [2H]C([2H])([2H])Oc1ccc2cnn(C([2H])([2H])[2H])c2c1NS(=O)(=O)c1ccc(-n2cc(C(F)(F)F)cn2)nc1 [Example I-316, N-(6-(methoxy-d3)-1-(methyl-d3)-1H-indazol-7-yl)-6-(4-(trifluoromethyl)-1H-pyrazol-1-yl)pyridine-3-sulfonamide] | < 400 | < 400 | 
5 | COc1ccc2c(F)nn(C)c2c1NS(=O)(=O)c1ccc(-n2cc(Cl)cn2)nc1 [Example I-240, 6-(4-chloro-1H-pyrazol-1-yl)-N-(3-fluoro-6-methoxy-1-methyl-1H-indazol-7-yl)pyridine-3-sulfonamide] | < 400 | < 400 | 
6 | Cc1ccc2cnn(C)c2c1NS(=O)(=O)c1ccc(-c2cc(C(F)(F)F)n[nH]2)nc1 [Example I-63, N-(1,6-dimethyl-1H-indazol-7-yl)-6-(5-(trifluoromethyl)-1H-pyrazol-3-yl)pyridine-3-sulfonamide] | < 400 | < 400 | 
7 | Cn1ncc2cccc(NS(=O)(=O)c3ccc(-c4cc[nH]c4)nc3)c21 [Example I-79, N-(1-Methyl-1H-Indazol-7-yl)-6-(1H-Pyrrol-3-yl)Pyridine-3-Sulfonamide] | > 2500 | 1000 to 2500 | 
8 | Cn1ncc2cccc(NS(=O)(=O)c3ccc(-c4cncc(F)c4)nc3)c21 [Example I-134, 5′-Fluoro-N-(1-Methyl-1H-Indazol-7-yl)-[2,3′-Bipyridine]-5-Sulfonamide] | > 2500 | < 400 | 
9 | COc1ccc2cnn(C)c2c1NS(=O)(=O)c1ccc(-n2ncc(C)c2C)nc1 [Example I-148, 6-(4,5-Dimethyl-1H-Pyrazol-1-yl)-N-(6-Methoxy-1-Methyl-1H-Indazol-7-yl)Pyridine-3-Sulfonamide] | < 400 | < 400 | 
10 | COc1ccc2cnn(C)c2c1NS(=O)(=O)c1ccc(-n2nccc2C2CC2)nc1 [Example I-147, 6-(5-Cyclopropyl-1H-Pyrazol-1-yl)-N-(6-Methoxy-1-Methyl-1H-Indazol-7-yl)Pyridine-3-Sulfonamide] | > 2500 | 400 to 1000 | 
11 | COc1ccc2cnn(C)c2c1NS(=O)(=O)c1ccc(-c2cc(C(F)(F)F)nn2C)nc1 [Example I-18, N-(6-Methoxy-1-Methylindazol-7-yl)-6-[2-Methyl-5-(Trifluoromethyl)Pyrazol-3-yl]pyridine-3-Sulfonamide] | < 400 | < 400 | 
12 | Cc1nn(-c2ccc(S(=O)(=O)Nc3cccc4cnn(C)c34)cn2)c(C)c1Cl [Example I-42, 6-(4-Chloro-3,5-Dimethyl-1H-Pyrazol-1-yl)-N-(1-Methyl-1H-Indazol-7-yl) Pyridine-3-Sulfonamide] | > 2500 | < 400 | 
13 | COc1ccc2cnn(C)c2c1NS(=O)(=O)c1ccc(-n2cc(C3CC3)cn2)nc1 [Example I-11, 6-(4-Cyclopropyl-1H-Pyrazol-1-yl)-N-(6-Methoxy-1-Methyl-1H-Indazol-7-yl)Pyridine-3-Sulfonamide] | < 400 | < 400 | 
14 | COc1ncc2cnn(C)c2c1NS(=O)(=O)c1ccc(-n2cc(C)cn2)nc1 [Example I-184, N-{6-methoxy-1-methylpyrazolo[4,3-c]pyridin-7-yl}-6-(4-methylpyrazol-1-yl)pyridine-3-sulfonamide] | < 400 | < 400 | 
15 | Cn1ncc2cccc(NS(=O)(=O)c3ccc(-n4cc(C(F)F)cn4)nc3)c21 [Example I-50, 6-[4-(Difluoromethyl)Pyrazol-1-Yl]-N-(1-Methylindazol-7-yl)Pyridine-3-Sulfonamide] | 400 to 1000 | < 400 | 
16 | Cc1nc(-c2ccc(S(=O)(=O)Nc3cccc4cnn(C)c34)cn2)cn1C(F)(F)F [Example I-264, 6-(2-methyl-1-(trifluoromethyl)-1H-imidazol-4-yl)-N-(1-methyl-1H-indazol-7-yl)pyridine-3-sulfonamide] | > 2500 | < 400 | 
17 | Cc1ncc2cnn(C)c2c1NS(=O)(=O)c1ccc(-n2cc(C(F)(F)F)cn2)nc1 [Example I-189, N-(1,6-dimethyl-1H-pyrazolo[4,3-c]pyridin-7-yl)-6-(4-(trifluoromethyl)-1H-pyrazol-1-yl)pyridine-3-sulfonamide] | 1000 to 2500 | 1000 to 2500 | 
18 | Cn1ncc2cccc(NS(=O)(=O)c3ccc(-c4cc[nH]c(=O)c4)nc3)c21 [Example I-154, N-(1-Methyl-1H-Indazol-7-yl)-2′-Oxo-1′,2′-Dihydro-[2,4′-Bipyridine]-5-Sulfonamide] | > 2500 | > 2500 | 
19 | CCc1ccc2cnn(C)c2c1NS(=O)(=O)c1ccc(-n2cc(C(F)(F)F)cn2)cn1 [Example I-7, N-(6-Ethyl-1-Methyl-1H-Indazol-7-yl)-5-(4-(Trifluoromethyl)-1H-Pyrazol-1-yl)Pyridine-2-Sulfonamide] | 1000 to 2500 | 1000 to 2500 | 
20 | Cn1ncc2cccc(NS(=O)(=O)c3ccc(-c4cnn(C(F)F)c4)nc3)c21 [Example I-86, 6-(1-(Difluoromethyl)-1H-Pyrazol-4-yl)-N-(1-Methyl-1H-Indazol-7-yl)Pyridine-3-Sulfonamide] | > 2500 | < 400 | 
21 | Cn1ncc2cccc(NS(=O)(=O)c3ccc(-n4cc(C5(F)CC5)cn4)nc3)c21 [Example I-55] | > 2500 | < 400 | 
22 | COc1ccc2nnn(C)c2c1NS(=O)(=O)c1ccc(-n2ccc(C(F)(F)F)n2)nc1 [Example I-128, N-(6-methoxy-1-methyl-1H-benzo[d][1,2,3]triazol-7-yl)-6-(3-(trifluoromethyl)-1H-pyrazol-1-yl)pyridine-3-sulfonamide] | 1000 to 2500 | 400 to 1000 | 
23 | Cn1ncc2ccc(C3CC3)c(NS(=O)(=O)c3ccc(-n4cc(Cl)cn4)nc3)c21 [Example I-17] | < 400 | < 400 | 
24 | COc1ccc2cnn(C)c2c1NS(=O)(=O)c1ccc(-n2cc(C)[nH]c2=O)nc1 [Example I-237, N-(6-methoxy-1-methyl-1H-indazol-7-yl)-6-(4-methyl-2-oxo-2,3-dihydro-1H-imidazol-1-yl)pyridine-3-sulfonamide] | < 400 | < 400 | 
25 | Cc1ncn(-c2ccc(S(=O)(=O)Nc3cccc4cnn(C)c34)cn2)n1 [Example I-37, 6-(3-Methyl-1H-1,2,4-Triazol-1-yl)-N-(1-Methyl-1H-Indazol-7-yl)Pyridine-3-Sulfonamide] | > 2500 | 1000 to 2500 | 
26 | Cn1nccc1-c1ccc(S(=O)(=O)Nc2cccc3cnn(C)c23)cn1 [Example I-82, N-(1-Methyl-1H-Indazol-7-yl)-6-(1-Methyl-1H-Pyrazol-5-yl)Pyridine-3-Sulfonamide] | > 2500 | 400 to 1000 | 
27 | Cn1c(-c2ccc(S(=O)(=O)Nc3cccc4cnn(C)c34)cn2)cnc1C(F)(F)F [Example I-234, 6-[3-methyl-2-(trifluoromethyl)imidazol-4-yl]-N-(1-methylindazol-7-yl)pyridine-3-sulfonamide] | > 2500 |  | < 400
28 | COc1ccc2cnn(C)c2c1NS(=O)(=O)c1ccc(-n2cc(CO)cn2)nc1 [Example I-284, 6-[4-(hydroxymethyl)pyrazol-1-yl]-N-(6-methoxy-1-methylindazol-7-yl)pyridine-3-sulfonamide] | 400 to 1000 | < 400 | 
29 | COc1ccc2[nH]nc(C)c2c1NS(=O)(=O)c1ccc(-n2cc(C(F)(F)F)cn2)nc1 [Example I-106, N-(5-Methoxy-3-Methyl-1H-Indazol-4-yl)-6-(4-(Trifluoromethyl)-1H-Pyrazol-1-yl)Pyridine-3-Sulfonamide] | < 400 | < 400 | 
